Experimental data reported in patent publication US7964104B2, “Active antiseptic water or active water-based fluid, and production method and apparatus for the same” (Japan Techno Co., Ltd., priority 2003, dated 2011).

Conditions: level of nitrite and sulfite ions in the water

In the case of nitrite and sulfite ions, the “Level at which the antiseptic effect is inadequate” value is reported as “less than 0.08 mg/L”.
